Here are results for three compounds from patent publication US8518966B2, “Amidoalkyl-8-azabicyclo[3.2.1]octane compounds as mu opioid receptor antagonists” (Theravance, Inc., priority 2007, dated 2013).

SMILES strings stand for the structures.

Assay [1] concerns the target T1, human mu opioid receptor (Homo sapiens, UniProt P35372).
T1 construct: host or cells: CHO-K1
Description: biochemical. Format: binding.

Assay [2] deals with T1, human mu opioid receptor. Description: biochemical. The conditions noted are these: read-out: intrinsic activity (IA), bound GTP-Eu relative to DAMGO (IA=100).
Assay [3] deals with loperamide-induced delayed gastric emptying. As to the kind of experiment: Rat gastric emptying assay (reversal of loperamide-induced delayed gastric emptying). Format: in vivo. The conditions noted are these: administered orally, loperamide 1 mg/kg s.c.

T1 sequence (P35372 whole entry): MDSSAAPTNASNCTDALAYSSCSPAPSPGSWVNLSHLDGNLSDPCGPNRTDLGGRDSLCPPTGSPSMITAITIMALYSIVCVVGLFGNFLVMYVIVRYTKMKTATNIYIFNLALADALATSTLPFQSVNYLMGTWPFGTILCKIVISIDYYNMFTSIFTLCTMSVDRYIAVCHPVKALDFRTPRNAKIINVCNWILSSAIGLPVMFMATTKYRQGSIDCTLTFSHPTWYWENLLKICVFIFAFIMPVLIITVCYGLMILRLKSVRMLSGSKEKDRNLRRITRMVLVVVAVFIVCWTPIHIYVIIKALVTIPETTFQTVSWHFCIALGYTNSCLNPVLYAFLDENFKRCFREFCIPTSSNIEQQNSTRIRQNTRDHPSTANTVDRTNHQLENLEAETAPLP

In the case of `CCC(CC)CN(CCCN1[C@@H]2CC[C@H]1C[C@@H](c1cccc(C(N)=O)c1)C2)C(=O)CS(C)(=O)=O` [Example 6, 3-endo-(8-{3-[(2-ethylbutyl)-(2-methanesulfonyl-acetyl)amino]propyl}-8-azabicyclo[3.2.1]oct-3-yl)-benzamide], on human mu opioid receptor [1], the Ki (in general, the dissociation constant of the complex between target and ligand, obtained from inhibition or displacement) was 0.126 nM. Further, the Emax at human mu opioid receptor [2] is 1%.
Consider `CCC(CC)CN(CCCN1[C@@H]2CC[C@H]1C[C@@H](c1cccc(C(N)=O)c1)C2)C(=O)CO` [Example 1, 3-endo-(8-{3-[(2-ethylbutyl)-(2-hydroxyacetyl)-amino]propyl}-8-aza-bicyclo[3.2.1]oct-3-yl)-benzamide], for which the pKi (in general, the negative decadic logarithm of the Ki, by convention in mol/L) at the human mu opioid receptor on human mu opioid receptor [1] stood at 10.0. Further, the Emax at human mu opioid receptor [2] worked out at 3%. In addition, the “ID50, dose required for 50% reversal of the effects of loperamide” value in assay [3] worked out at 0.29 mg/kg.
Take `CCC(CC)CN(CCN1[C@@H]2CC[C@H]1C[C@@H](c1cccc(C(N)=O)c1)C2)C(=O)CS(C)(=O)=O` [Example 7, 3-endo-(8-{2-[(2-ethylbutyl)-(2-methanesulfonyl-acetyl)amino]ethyl}-8-azabicyclo[3.2.1]oct-3-yl)-benzamide]: affinity at human mu opioid receptor [1] was put at a Ki of 0.158 nM. Further, the Emax at human mu opioid receptor [2] amounted to 3%. Further, the “ID50, dose required for 50% reversal of the effects of loperamide” value in assay [3] came out at 0.53 mg/kg.
